“Also recorded” adds a separate entry of the source. Where a name gives a salt, the structure may show the parent alone.
Tests used:
[1] = test system: SUDV Boniface; experiment: microbe, parasite or virus in culture; assay type: cell-based, Sudan virus; settings: for EC50: Sudan ebolavirus, HeLa, read-out: Activity against SUDV EC50
[2] = in vitro; settings: human
[3] = test system: SUDV Boniface and MARV Ci67; assay type: cell-based, Sudan virus, Marburg virus
[4] = ref PubChem compound summaries; cited from earlier work
[5] = test system: MARV Ci67; experiment: organism not typed; assay type: cell-based, Marburg virus; settings: HeLa, read-out: Activity against MARV EC50
[6] = test system: HeLa cells
[7] = human plasma maximum concentration; ref [1]–[19]; cited from earlier work
[8] = in vitro; settings: human; remark: listed apart in the source
[9] = test system: SUDV Boniface; assay type: cell-based, Sudan virus
[10] = in vivo; cited from earlier work
[11] = test system: MARV Ci67; assay type: cell-based, Marburg virus
[12] = test system: West Niles virus (WNV); settings: read-out: EC50 against West Niles virus (WNV); cited from earlier work
[13] = test system: HCV 1b replicon; settings: read-out: EC50 against HCV 1b replicon (early studies); cited from earlier work
[14] = test system: dengue virus-2 (DENV-2); settings: read-out: EC50 against dengue virus-2 (DENV-2); cited from earlier work
[15] = test system: yellow fever virus (YFV); settings: read-out: EC50 against yellow fever virus (YFV); cited from earlier work

Row | SMILES | Drug-drug interaction? (RDV potency) [3] | Plasma Protein Binding [4] | RDV CC50 when combination ([6]; human) [µM] | RDV CC50 when in combination ([6]; human) [µM] | Cmax [7] | effect on RDV potency in combination studies [3] | other results
1 | Cc1cccc(C)c1OCC(=O)N[C@@H](Cc1ccccc1)[C@@H](O)C[C@H](Cc1ccccc1)NC(=O)[C@H](C(C)C)N1CCCNC1=O [Lopinavir] | No for MARV; also recorded: Not antagonistic | >98% | > 2.5 | > 2.5 | – | – | EC50 [1]: 2.32 ± 0.58 µM; CC50 at 48 h [2]: > 100 µM; CC50 ([2]; CC50 (SUDV assay)): 34.1 ± 0.9 µM; EC50 [5]: > 100 µM
2 | CO/N=C(\C(=O)N[C@@H]1C(=O)N2C(C(=O)O)=C(CSc3nc(=O)c(=O)[nH]n3C)CS[C@H]12)c1csc(N)n1 [Ceftriaxone, ceftriaxone disodium salt hemi(heptahydrate)] | Not antagonistic | – | > 2.5 | > 2.5 | 291000 [7] ng/mL | – | CC50 (SUDV assay) ([6]; human): 20.9 ± 10.1 µM
3 | NC(=O)c1nc(F)c[nH]c1=O [Favipiravir, 6-fluoro-3-oxo-3,4-dihydropyrazine-2-carboxamide] | – | – | – | – | – | – | CC50 [8]: > 750 µM; maximum fold reduction of favipiravir EC50 in combination with RDV [9]: ≥ 21 fold; decrease of plasma median concentration on Day 4 [10]: ~ 50%; maximum fold reduction of favipiravir EC50 in combination with RDV [11]: ≥ 4.8 fold
4 | C[C@H]1[C@H](OC(=O)CCC(=O)O)O[C@@H]2O[C@@]3(C)CC[C@H]4[C@H](C)CC[C@@H]1[C@@]24OO3 [Artesunate] | No | 93% | > 2.5 | – | 3260 [4] ng/mL | – | –
5 | [H]/N=C(\N/C(=N/[H])Nc1ccc(Cl)cc1)NC(C)C [Proguanil, Proguanil hydrochloride] | No | – | > 2.5 | > 2.5 | 918 [5] ng/mL | minimal effect on RDV potency | –
6 | O=C(O)c1cn(C2CC2)c2cc(N3CCNCC3)c(F)cc2c1=O [Ciprofloxacin] | Enhanced for SUDV | – | – | – | – | – | –
7 | O=C1Nc2ccc(Cl)cc2[C@@](C#CC2CC2)(C(F)(F)F)O1 [Efavirenz] | Not antagonistic | 99.5–99.75% | – | – | 12900 [14] ng/mL | – | EC50 [1]: 2.24 ± 0.57 µM; CC50 at 48 h [2]: 15.1 ± 4.1 µM; CC50 ([2]; CC50 (SUDV assay)): 20.7 ± 10.1 µM; CC50 ([2]; CC50 when tested alone): 14 to 28 µM; EC50 [5]: 19.8 ± 0.1 µM; cytotoxicity of combination with RDV [6]: Enhanced cytotoxicity
8 | COc1ccc2[nH]c([S+]([O-])Cc3ncc(C)c(OC)c3C)nc2c1 (stereo not drawn) [Omeprazole] | No | – | > 2.5 | > 2.5 | 598 [12] ng/mL | minimal effect on RDV potency | –
9 | O=C1C(O)=C([C@H]2CC[C@H](c3ccc(Cl)cc3)CC2)C(=O)c2ccccc21 [Atovaquone] | No | 99.9% | – | – | 8300 [5, 6] ng/mL | minimal effect on RDV potency | CC50 ([2]; CC50 when tested alone): 8 to 17 µM; cytotoxicity of combination with RDV [6]: Enhanced cytotoxicity
10 | N#C[C@@]1(c2ccc3c(N)ncnn23)O[C@H](CO)[C@@H](O)[C@H]1O [GS-441524] | – | – | – | – | – | – | EC50 [12]: > 30 µM; EC50 [13]: 3.1 µM; EC50 [14]: 9.46 µM; EC50 [15]: 11 µM
11 | Cc1ncc([N+](=O)[O-])n1CCO [Metronidazole] | No | 20% | > 2.5 | > 2.5 | 5100 [11] ng/mL | minimal effect on RDV potency | –
12 | CN1C(=O)CN=C(c2ccccc2)c2cc(Cl)ccc21 [Diazepam] | No | – | – | – | – | minimal effect on RDV potency | –
13 | CCCCN(CCCC)CC(O)c1cc(Cl)cc2c1-c1ccc(Cl)cc1/C2=C/c1ccc(Cl)cc1 (stereo not drawn) [Lumefantrine] | Not antagonistic | – | > 2.5 | > 2.5 | 6300 [10] ng/mL | – | EC50 [1]: 9.6 ± 0.52 µM; CC50 at 48 h [2]: 37.3 ± 0.9 µM; CC50 ([2]; CC50 (SUDV assay)): 40 ± 1.2 µM; EC50 [5]: 16.6 ± 7.3 µM
14 | CC(C)c1nc(CN(C)C(=O)N[C@H](C(=O)N[C@@H](Cc2ccccc2)C[C@H](O)[C@H](Cc2ccccc2)NC(=O)OCc2cncs2)C(C)C)cs1 [Ritonavir] | No | – | – | – | 1271 [17] ng/mL | minimal effect on RDV potency | –
15 | Cc1nccn1CC1CCc2c(c3ccccc3n2C)C1=O (stereo not drawn) [Ondansetron, ondansetron hydrochloride dihydrate] | No | 73% | > 2.5 | > 2.5 | 106 [13] ng/mL | minimal effect on RDV potency | –
16 | CC(=O)Nc1ccc(O)cc1 [Acetaminophen] | No | 10–25% | > 2.5 | > 2.5 | 11400 [1] ng/mL | minimal effect on RDV potency | –
17 | Nc1ccn([C@@H]2CS[C@H](CO)O2)c(=O)n1 [Lamivudine] | No | <36% | > 2.5 | > 2.5 | 2600 [15] ng/mL | minimal effect on RDV potency | –
18 | CO[C@H]1O[C@@H]2O[C@@]3(C)CC[C@H]4[C@H](C)CC[C@@H]([C@H]1C)[C@@]24OO3 [Artemether] | No | 95.4% | > 2.5 | > 2.5 | 198 [3] ng/mL | minimal effect on RDV potency | –
19 | CCN(CC)Cc1cc(Nc2ccnc3cc(Cl)ccc23)ccc1O [Amodiaquine, Amodiaquine hydrochloride dihydrate] | Enhanced^5 for SUDV | – | > 2.5 | > 2.5 | 32.3 [2] ng/mL | – | fold lowering of RDV EC50 against SUDV [1]: > 5 folds
20 | CC(C)OC(=O)OCOP(=O)(CO[C@H](C)Cn1cnc2c(N)ncnc21)OCOC(=O)OC(C)C [Tenofovir disoproxil fumarate] | No | <1% | > 2.5 | > 2.5 | 300 [18, 19] ng/mL | minimal effect on RDV potency | –
